From PubChem BioAssay (NCI) come the findings set out here.

Some test systems named below: CCRF-CEM leukemia; DU-145 prostate; HOP-62 NSCLC; IGROV1 ovarian; KM12 colon; MDA-MB-231 breast; NCI/ADR-RES ovarian; OVCAR-8 ovarian; RPMI-8226 leukemia; U251 CNS.
Holding throughout (test): NCI anticancer screen, dose series, 48 h

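1) Cells in 96-well plates. 2) Compound, 48 h, 5 concentrations. 3) Linear interpolation between surrounding doses. 4) Unreached endpoint = highest concentration. TGI marks complete inhibition of growth.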 Where only a bound is given, the exact number is not on record here.

In the case of `COc1ccc(N=Nc2c(-c3c(OC)cc4occc4c3OC)[nH]c(=O)c(C#N)c2C)cc1`, the TGI in the assay with CCRF-CEM leukemia, in the assay with DU-145 prostate, in the assay with HOP-62 NSCLC, in the assay with IGROV1 ovarian, with KM12 colon and with MDA-MB-231 breast was over 100 µM each time. The TGI with NCI/ADR-RES ovarian, in the assay on OVCAR-8 ovarian, with RPMI-8226 leukemia and with U251 CNS was over 100 µM each time.
On to `COc1ccc2nc(NC(=O)/C(C#N)=C/c3ccccc3)sc2c1`, for which the TGI with CCRF-CEM leukemia is 59.7 µM; in the assay with DU-145 prostate, over 100 µM; in the assay on HOP-62 NSCLC it was over 100 µM; with IGROV1 ovarian, over 86.3 µM; with KM12 colon it was over 73.3 µM; in the assay with MDA-MB-231 breast, over 100 µM. For the same compound, the TGI is over 69.6 µM in the assay with NCI/ADR-RES ovarian, over 100 µM with OVCAR-8 ovarian, over 84.5 µM in the assay with RPMI-8226 leukemia and over 100 µM in the assay with U251 CNS.
Regarding `CC(C)NC(=O)OCc1c(COC(=O)NC(C)C)n(C)c2c1ccc1sccc12`, the TGI in the assay on CCRF-CEM leukemia was over 100 µM; in the assay on DU-145 prostate, 21.1 µM; in the assay on HOP-62 NSCLC it was 46.4 µM; in the assay with IGROV1 ovarian, 26.1 µM; in the assay on KM12 colon, 31.2 µM; in the assay on MDA-MB-231 breast it was 52 µM. The TGI with NCI/ADR-RES ovarian is over 55.7 µM; with OVCAR-8 ovarian it was over 100 µM; in the assay on RPMI-8226 leukemia, over 58.8 µM; in the assay on U251 CNS, over 60.8 µM.
With `CCOC(=O)CSc1nc(N)c2c(-c3ccccc3)c3c(nc2n1)CCCC3`, the TGI with CCRF-CEM leukemia, with DU-145 prostate, in the assay on HOP-62 NSCLC, in the assay on IGROV1 ovarian, with KM12 colon and with MDA-MB-231 breast was over 100 µM each time. Further, the TGI with NCI/ADR-RES ovarian, in the assay with OVCAR-8 ovarian, with RPMI-8226 leukemia and with U251 CNS was over 100 µM throughout.
As for `NS(=O)(=O)c1nnc(NC(=O)N(c2ccccc2)c2ccccc2)s1`, the TGI is over 100 µM in the assay with CCRF-CEM leukemia; 41 µM in the assay on DU-145 prostate; 77.3 µM with HOP-62 NSCLC; 52.6 µM with IGROV1 ovarian; 56.8 µM in the assay on KM12 colon; over 100 µM in the assay with MDA-MB-231 breast. The TGI in the assay on NCI/ADR-RES ovarian was 44.4 µM; in the assay on OVCAR-8 ovarian, 51.1 µM; in the assay on RPMI-8226 leukemia, 49.4 µM; with U251 CNS, over 100 µM.
With `O=C(CCc1cc(O)cc(O)c1)NCCc1cc(OCc2ccccc2)cc(OCc2ccccc2)c1`, the TGI in the assay with CCRF-CEM leukemia was found to be 50.8 µM; in the assay with DU-145 prostate it was 33.5 µM; in the assay on HOP-62 NSCLC, 36.8 µM; in the assay with IGROV1 ovarian it was 31.4 µM; in the assay with KM12 colon it was 28.1 µM; in the assay on MDA-MB-231 breast, 39.3 µM. Moreover, the TGI in the assay with NCI/ADR-RES ovarian is 55.2 µM; in the assay with OVCAR-8 ovarian it was 50.6 µM; in the assay with RPMI-8226 leukemia, 54 µM; in the assay with U251 CNS, over 100 µM.
As for `COCOc1ccc(C(=O)Oc2cccc3c2OC(C)(C)O3)c(OCOC)c1`, the TGI in the assay on CCRF-CEM leukemia was over 100 µM; with DU-145 prostate, over 100 µM; with HOP-62 NSCLC, over 100 µM; in the assay with IGROV1 ovarian, over 100 µM; with KM12 colon, 91.1 µM; in the assay on MDA-MB-231 breast, over 100 µM. The TGI in the assay with NCI/ADR-RES ovarian, in the assay on OVCAR-8 ovarian, in the assay with RPMI-8226 leukemia and in the assay with U251 CNS was over 100 µM each time.
Take `CCCCCCN(CCCCCC)C(=S)N/N=C(\C)c1ccccn1`: the TGI in the assay on CCRF-CEM leukemia is 4.39 µM; in the assay on DU-145 prostate, 2.59 µM; with HOP-62 NSCLC, 3.32 µM; in the assay with IGROV1 ovarian, 2.62 µM; in the assay with KM12 colon, 2.73 µM; in the assay with MDA-MB-231 breast, 2.76 µM. Moreover, the TGI in the assay with NCI/ADR-RES ovarian worked out at 4.27 µM; in the assay on OVCAR-8 ovarian, 3.38 µM; in the assay on RPMI-8226 leukemia it was 3.22 µM; in the assay with U251 CNS it was 1.71 µM.
As for `Cc1ccccc1-c1nc2c(N)nc(N)nc2nc1N`, the TGI with CCRF-CEM leukemia, in the assay with DU-145 prostate, in the assay with HOP-62 NSCLC, in the assay on IGROV1 ovarian, in the assay with KM12 colon and in the assay with MDA-MB-231 breast was over 100 µM throughout. Moreover, the TGI in the assay with NCI/ADR-RES ovarian, in the assay on OVCAR-8 ovarian, in the assay with RPMI-8226 leukemia and with U251 CNS was over 100 µM in each case.
In the case of `O=C(NCc1ccccc1)c1cc2ccccc2oc1=Nc1cccc(C(F)(F)F)c1`, the TGI in the assay on CCRF-CEM leukemia, in the assay on DU-145 prostate, with HOP-62 NSCLC, in the assay on IGROV1 ovarian, in the assay on KM12 colon and with MDA-MB-231 breast was over 100 µM each time. The TGI in the assay with NCI/ADR-RES ovarian, in the assay with OVCAR-8 ovarian, in the assay with RPMI-8226 leukemia and in the assay on U251 CNS was over 100 µM each time.
For `COC1OC(C)C(NC(=O)OCC(Cl)(Cl)Cl)C2OC(C)(C)OC12` (stereo not given), the TGI in the assay on CCRF-CEM leukemia, in the assay on DU-145 prostate, in the assay with HOP-62 NSCLC, with IGROV1 ovarian, in the assay on KM12 colon and in the assay with MDA-MB-231 breast was over 100 µM throughout. Moreover, the TGI in the assay with NCI/ADR-RES ovarian, in the assay with OVCAR-8 ovarian, in the assay on RPMI-8226 leukemia and with U251 CNS was over 100 µM throughout.
With `C[n+]1cc2cc(O)c(O)cc2c2ccc3cc(O)c(O)cc3c21`, the TGI with CCRF-CEM leukemia was 6.17 µM; in the assay with DU-145 prostate it was over 100 µM; in the assay with HOP-62 NSCLC, 10.8 µM; in the assay with IGROV1 ovarian it was 4.75 µM; with KM12 colon it was over 100 µM; in the assay on MDA-MB-231 breast it was over 100 µM. Also, the TGI in the assay with NCI/ADR-RES ovarian is 6.67 µM; in the assay on OVCAR-8 ovarian, 11.4 µM; in the assay with RPMI-8226 leukemia it was over 100 µM; in the assay on U251 CNS it was 9.91 µM.
Regarding `CC1=CC2C3(C)C(C)(C(C)=CP3(=O)c3c(C(C)C)cc(C(C)C)cc3C(C)C)C1P2(=O)c1c(C(C)C)cc(C(C)C)cc1C(C)C` (stereo not given), the TGI in the assay with CCRF-CEM leukemia stood at 7.44 µM; in the assay on DU-145 prostate, 14.2 µM; in the assay with HOP-62 NSCLC it was 10.4 µM; in the assay on IGROV1 ovarian it was 6.1 µM; in the assay on KM12 colon it was 4.05 µM; in the assay with MDA-MB-231 breast it was 3.87 µM. Besides, the TGI with NCI/ADR-RES ovarian is 9.89 µM; with OVCAR-8 ovarian, 16.6 µM; in the assay on RPMI-8226 leukemia, 3.02 µM; in the assay with U251 CNS it was 6.59 µM.
On to `CC(=O)O[C@@H](c1nccn1Cc1ccccc1)[C@H]1OC(C)(C)O[C@@H]1[C@H]1COC(C)(C)O1`, for which the TGI with CCRF-CEM leukemia, with DU-145 prostate, with HOP-62 NSCLC, in the assay with IGROV1 ovarian, with KM12 colon and in the assay with MDA-MB-231 breast was over 100 µM in each case. Besides, the TGI in the assay on NCI/ADR-RES ovarian, with OVCAR-8 ovarian, in the assay with RPMI-8226 leukemia and with U251 CNS was over 100 µM each time.
With `COc1ccc2c(c1)c1c(n2CCN2CCCCC2)-c2cccc(OC)c2CC1`, the TGI in the assay with CCRF-CEM leukemia was 27.3 µM; in the assay on DU-145 prostate, over 100 µM; in the assay on HOP-62 NSCLC it was 32.4 µM; in the assay with IGROV1 ovarian, 29.8 µM; in the assay with KM12 colon, 28.8 µM; in the assay on MDA-MB-231 breast it was 36.6 µM. Besides, the TGI in the assay on NCI/ADR-RES ovarian was determined as 41.5 µM; with OVCAR-8 ovarian it was 32.3 µM; with RPMI-8226 leukemia it was 35.5 µM; with U251 CNS, 29.9 µM.
As to `COc1ccc2ccc3oc(=O)c(C)cc3c2c1`, the TGI in the assay with CCRF-CEM leukemia, in the assay on DU-145 prostate, in the assay with HOP-62 NSCLC, in the assay on IGROV1 ovarian, in the assay with KM12 colon and with MDA-MB-231 breast was over 100 µM throughout. Besides, the TGI with NCI/ADR-RES ovarian, with OVCAR-8 ovarian, in the assay on RPMI-8226 leukemia and in the assay on U251 CNS was over 100 µM throughout.
For the compound `O=C(COc1ccc(OCC(=O)N/N=C/c2ccc(-c3ccc(Cl)cc3Cl)o2)c(Cl)c1)N/N=C/c1ccc(-c2ccc(Cl)cc2Cl)o1`, the TGI in the assay with CCRF-CEM leukemia was 34.8 µM; in the assay with DU-145 prostate, over 100 µM; in the assay on HOP-62 NSCLC, over 100 µM; with IGROV1 ovarian, over 100 µM; in the assay with KM12 colon, over 100 µM; in the assay on MDA-MB-231 breast it was over 100 µM. In addition, the TGI with NCI/ADR-RES ovarian is over 100 µM; with OVCAR-8 ovarian, over 100 µM; in the assay on RPMI-8226 leukemia, 38.4 µM; with U251 CNS, over 100 µM.
With `CC1(C)CC(=O)C2=C(C1)C(c1ccccc1Cl)C1C(=O)CC(C)(C)CC1(O)O2` (stereo not given), the TGI in the assay with CCRF-CEM leukemia was over 94.8 µM; in the assay with DU-145 prostate, over 100 µM; in the assay with HOP-62 NSCLC, over 100 µM; in the assay with IGROV1 ovarian it was over 100 µM; in the assay on KM12 colon it was over 100 µM; with MDA-MB-231 breast, over 100 µM. Besides, the TGI with NCI/ADR-RES ovarian, in the assay with OVCAR-8 ovarian, with RPMI-8226 leukemia and with U251 CNS was over 100 µM in each case.
As to `Cc1ccc(-c2cc(-c3ccco3)c(C#N)c(=S)[nH]2)cc1`, the TGI with CCRF-CEM leukemia, in the assay on DU-145 prostate, in the assay on HOP-62 NSCLC, in the assay on IGROV1 ovarian, with KM12 colon and in the assay with MDA-MB-231 breast was over 100 µM each time. Also, the TGI in the assay on NCI/ADR-RES ovarian was over 100 µM; with OVCAR-8 ovarian it was over 100 µM; with RPMI-8226 leukemia, over 100 µM; in the assay on U251 CNS, 62.9 µM.
With `CN(C)CCN(c1ccccn1)c1ccccn1`, the TGI in the assay on CCRF-CEM leukemia, in the assay with DU-145 prostate, with HOP-62 NSCLC, in the assay with IGROV1 ovarian, with KM12 colon and in the assay with MDA-MB-231 breast was over 100 µM in each case. Also, the TGI in the assay with NCI/ADR-RES ovarian, in the assay on OVCAR-8 ovarian, in the assay on RPMI-8226 leukemia and in the assay on U251 CNS was over 100 µM in each case.
For `c1c[nH]c(-c2cccc3nsnc23)c1`, the TGI in the assay with CCRF-CEM leukemia, in the assay on DU-145 prostate, in the assay on HOP-62 NSCLC, in the assay on IGROV1 ovarian, in the assay on KM12 colon and in the assay on MDA-MB-231 breast was over 100 µM each time. The TGI in the assay with NCI/ADR-RES ovarian, with OVCAR-8 ovarian, with RPMI-8226 leukemia and in the assay on U251 CNS was over 100 µM in each case.
